According to patent US6492405B2, “Nitric oxide donors and pharmaceutical compositions containing them” (Yissum Research Development Company of the Hebrew …, priority 1999, dated 2002):

System: vascular cGMP
Assay: vasorelaxant activity measured as increase in vascular cGMP in rat aorta after i.v. push, before and after 18 hr continuous i.v. infusion
Type: in vivo, male Sprague-Dawley rats
Details: for cGMP Post-infusion / cGMP Pre-infusion: rat aorta, i.v. push, nitroglycerin equimolar doses; for cGMP Post-infusion: after 18 hr continuous i.v. infusion of the same compound; for cGMP Pre-infusion: before 18 hr continuous i.v. infusion
Protocol: Representative for the new compounds, the vasorelaxant activities (measured as the ability of the tested drug to induce an increase in vascular cGMP) of the example compounds 1 to 6 were determined and compared to activity of nitroglycerin under the same experimental conditions following single and sustained exposure of rats to the compound.
For this purpose the compound to be tested was administered, in each case, to 8 male Sprague-Dawley rats (300-400 g) before and after an 18 hr continuous intravenous infusion of the compound. […] After drug administration (i.v. push), the rat was sacrificed, the aorta immediately removed and processed for cGMP measurement as has been described in detail by us. All of the tested new compounds were utilized in nitroglycerin equimolar doses, either before of after the “tolerance” induction period.
The following table summarizes the results obtained following administration of either nitroglycerin or the tested compounds before and after an 18 hr continuous exposure to the same compound: […]

Compound | cGMP Post-infusion [pmol/g tissue] | cGMP Pre-infusion [pmol/g tissue] | tolerance to the cGMP-inducing activity (after 18 hr continuous in vivo administration)
1,2-Dihydroxy-dinitrate-6,8-dithiane [Compound 6] | 179 ± 12 | 193 ± 17 | 
O=[N+]([O-])OCCCCCC1CCSS1 (centres unmarked) [Compound 5, Thioctyl Alcohol Nitrate Ester] | 113 ± 11 | 123 ± 13 | 
1,1′-Bisthiomethyl-3,4-dihydroxy-cyclohexane-dinitrate ester [Compound 4] | 169 ± 13 | 149 ± 11 | 
O=[N+]([O-])OCC1(CO[N+](=O)[O-])CCSSC1 [Compound 3, 1,1-Diemethanol-dinitrate-3,4-dithiane] | 174 ± 16 | 171 ± 14 | 
O=[N+]([O-])OCC(CO[N+](=O)[O-])O[N+](=O)[O-] [Nitroglycerin, nitroglycerin, reference compound] | 68 ± 9 | 153 ± 13 | developed early
